Assay results: patent US5900434A, “Method for inhibiting the production of interleukin-1 or tumor necrosis factor-α by administering acanthoic acid” (Korea Institute of Science and Technology, priority 1994, dated 1999)

Key:
leukocyte migration = conditions: cited from earlier work
rat hepatocirrhosis = experiment: CCl4-induced hepatocirrhosis in rat, liver histology; type: in vivo, Sprague-Dawley rat; conditions: 0.2 ml orally twice a week, 13 weeks, FIG. 11, E = CCl4 + methanol extract, F = CCl4 + acanthoic acid
Description: Hepatocirrhosis(hepatic sclerosis) is characterized by the fibrosis of whole liver, complete disruption of liver parenchyma by fibrous septa, and formation of regenerative nodules. It is derived mostly from a chronic hepatitis or chronic alcoholism, however, the precise causes thereof are unknown. In a hepatocirrhosis patient, the amount of cytokines, e.g., TNF-α, which is involved in inflammation and fibrosis, is in an increased state; and, therefore, the inhibition of hepatocirrhosis by acanthoic acid may be determined by the inhibitory activity to TNF-α. To induce the experimental hepatocirrhosis in accordance with the method of Nakataukasa, H., et al. as described in J. Clin. Invest., 85, 1833-1843(1990), 1.0 ml/100 g of body weight of CCl4 solution(50% CCl4 +50% corn oil) was injected intraperitoneally to 4 week old male Sprague-Dawley rats twice a week, and 0.2 ml each of methanol extract of A. koreanum Nakai and acanthoic acid was administered orally at the time of the injection of CCl4 twice a week. After 13 weeks from the start of the test, each of the rats was anesthetized with ether and the blood samples were obtained from the heart to determine serum glutamic-oxaloacetic transaminase(sGOT) value and serum glutamic-pyruvic transaminase(sGPT) value(FIG. 10). […]

[1] = test system: O2^- production in human neutrophils; experiment: Production of O2^- in human neutrophils (PMA-stimulated); type: cell-based
Description: Normal human peripheral blood was heparin-treated and diluted with equal amount of Hank's balanced salt solution (HBSS: Ca^2+ and Mg^2+ free). The diluted blood was put into a centrifuge tube containing therein Ficoll-Hypaque(Sigma, St. Louis, Mo., U.S.A.) layer having a density of 1.077 piled up on Ficoll-Hypaque layer having a density of 1.119, and then centrifuged at 700×g for 30 minutes to obtain monocytes from the layer between Ficoll-Hypaque layer having a density of 1.077 and serum layer, and neutrophils from the layer between Ficoll-Hypaque layer having a density of 1.077 and that having a density of 1.119. The separated cells were washed twice with 4° C. HBSS(Ca^2+ and Mg^2+ free) and suspended in RPMI 1640 medium(Gibco, Grand Island, N.Y., U.S.A.) containing 10% fetal bovine serum(FBS, Hyclone, Logan, Utah, U.S.A.). The suspensions were added to the wells of 24-well incubation plate(Costar, Cambridge, Mass., U.S.A.) and incubated at 37° C. for 2 hours to obtain monocytes, macrophages and neutrophils. Inflammatory responses are known as a cascade reaction comprising the secretion of various cytokines, e.g., IL-1, from immune cells stimulated by various stimulants; production of phospholipase A2, lysosomal enzyme, reactive oxygen species, etc. by other immune cells stimulated by said cytokines; and damage of tissues induced by the above products(Pruzanski, W. and […]., Immunol. Today, 12, 143(1991)). The ability of acanthoic acid to block the inflammatory reactions was tested by measuring their inhibitory activity to the production of reactive oxygen species, i.e., H2 O2 and O2^-. For the purpose of measuring the amount of produced O2^-, neutrophils suspended in RPMI 1640 medium in a concentration of 1×10^6 cells/800 μl was added to a part of the wells of 24-well plate and 10 μg/ml of superoxide dismutase(SOD, Sigma) was added to the empty wells. The plate was stored at 37° C. for 2 minutes, and cytochrome C(3 mg/ml, Sigma) was added to the wells in a concentration of 100 μl/well. The cells were treated with 10, 20 and 50 μg/ml of acanthoic acid for an hour and reacted at 37° C. for 20 minutes by introducing 10^-7 PMA as a stimulant. The reaction was terminated by adding 1 mM N-ethylmaleimide(Sigma) to the wells and the culture was centrifuged at 1,600×g for 10 minutes to obtain a supernatant. The change of color of the supernatant caused by the reduction of cytochrome C was measured at 550 nm by using a UV-Visible spectrophotometer (Kontron Instrument, Milano, Italy). The amount of produced O2^- was represented by the concentration of SOD which can suppress the reduction of cytochrome C in 1×10^6 cells for 20 minutes, by employing the extinction coefficient of cytochrome C(E550 nm =1.83×10^4 […] cm^-1).

Compound: C=C[C@@]1(C)CC=C2C(CCC3[C@](C)(C(=O)O)CCC[C@@]23C)C1 (single isomer, unassigned; (-)) [acanthoic acid, (-)-pimara-9(11),15-diene-19-oic acid]
- inhibition of leukocyte migration (leukocyte migration): inhibit the leukocyte migration
- liver histology, effect on hepatocirrhosis (rat hepatocirrhosis): the inhibitory effect on the hepatocirrhosis is lower than that of E
- inhibition at 50 µg/mL ([1]; Neutrophil, 50 μg/ml, PMA): 72%
- activity at 10 µg/mL ([1]; Neutrophil, 20 min, PMA + acanthoic acid 10 μg/ml, PMA = 100, read-out: Amount of produced reactive oxygen species, O2^- (% to the control group)): 76.8%
- activity at 20 µg/mL ([1]; Neutrophil, 20 min, PMA + acanthoic acid 20 μg/ml, PMA = 100, read-out: Amount of produced reactive oxygen species, O2^- (% to the control group)): 31.6%
- activity at 50 µg/mL ([1]; Neutrophil, 20 min, PMA + acanthoic acid 50 μg/ml, PMA = 100, read-out: Amount of produced reactive oxygen species, O2^- (% to the control group)): 28.4%
- Amount of produced reactive oxygen species, O2^- ([1]; PMA + acanthoic acid 10 μg/ml): 11.9 nM/20 min.
- Amount of produced reactive oxygen species, O2^- ([1]; PMA + acanthoic acid 20 μg/ml): 4.9 nM/20 min.
- Amount of produced reactive oxygen species, O2^- ([1]; PMA + acanthoic acid 50 μg/ml): 4.4 nM/20 min.
